We go through eight molecules from publication PMC11822212, “High-throughput screening identifies Aurora kinase B as a critical therapeutic target for Merkel cell carcinoma” (Nature Communications, 2025).

One experiment has as its system MCC13 cells (VN-MCC). Nature of the experiment: qHTS cell viability (CellTiter-Glo, 72 h; primary and follow-up small molecule screen). It is filed as cell-based, human. As to conditions: for Area under the dose-response curve (AUC) MCC13: primary high-throughput screen, viability 72 h, n = 1. Background: Quantitative high-throughput screening tests each substance at several concentrations.

In the next experiment the test system is MCC26 cells (VN-MCC). The description is as above. It is filed as cell-based, human. As to conditions: for Area under the dose-response curve (AUC) MCC26: primary high-throughput screen, viability 72 h, n = 1.
In a further experiment the test system is UISO cells (VN-MCC). The description is as above. It is filed as cell-based, human. Conditions: for Area under the dose-response curve (AUC) UISO: primary high-throughput screen, viability 72 h, n = 1.
For a further experiment, the system named is WAGA cells (VP-MCC). Described as above. As to conditions: for Area under the dose-response curve (AUC) WAGA: primary high-throughput screen, viability 72 h, n = 1. Type of experiment: cell-based, human.
The next experiment deals with MKL-1 cells (VP-MCC). Described as above. Type of experiment: cell-based, human. As to conditions: for Area under the dose-response curve (AUC) MKL-1: primary high-throughput screen, viability 72 h, n = 1.
The test system of a further experiment is MKL-2 cells (VP-MCC). Described as above. Type of experiment: cell-based, human. As to conditions: for Area under the dose-response curve (AUC) MKL-2: primary high-throughput screen, viability 72 h, n = 1.
In another experiment the test system is HACAT cells. Nature of the experiment: qHTS cell viability (CellTiter-Glo, 72 h; primary screen), control cell line. Type of experiment: cell-based, human. Conditions: for Area under the dose-response curve (AUC) HACAT: primary high-throughput screen, viability 72 h, n = 1.
In another experiment the test system is HEK293T cells. The experiment is described as above. Type of experiment: cell-based, human. As to conditions: for Area under the dose-response curve (AUC) HEK293T: primary high-throughput screen, viability 72 h, n = 1.
In the next experiment the test system is NIH-3T3 cells. The description is as above. It is filed as cell-based, mouse. Conditions: for Area under the dose-response curve (AUC) NIH3T3: primary high-throughput screen, viability 72 h, n = 1.
The subject of a further experiment is CRL-7250 cells. The experiment is described as above. It is filed as cell-based. As to conditions: for Area under the dose-response curve (AUC) CRL7250: primary high-throughput screen, viability 72 h, n = 1.
Experiment [1] relates to VP-MCC cell lines (WAGA, MKL-1, MKL-2). Nature of the experiment: qHTS cell viability, VP-MCC cell lines as a group (mean AUC, VP.MCC.avg). It is filed as cell-based, human.
Experiment [2] relates to VN-MCC cell lines (MCC13, MCC26, UISO). Nature of the experiment: qHTS cell viability, VN-MCC cell lines as a group (mean AUC, VN.MCC.avg). It is filed as cell-based, human.
Experiment [3] has as its system six MCC cell lines and four control cell lines. Nature of the experiment: qHTS cell viability, all 10 cell lines screened. It is filed as cell-based.
Setting [4] is: area under the dose-response curve, MCC13 cells, AUC<450 = reduced viability.
Setting [5] is: area under the dose-response curve, MCC26 cells, AUC<450 = reduced viability.
The mark [6] stands for this setting: area under the dose-response curve, UISO cells, AUC<450 = reduced viability.
Where [7] appears, read: area under the dose-response curve, WAGA cells, AUC<450 = reduced viability.
[8] abbreviates: area under the dose-response curve, MKL-1 cells, AUC<450 = reduced viability.
[9] abbreviates: area under the dose-response curve, MKL-2 cells, AUC<450 = reduced viability.
[10] abbreviates: area under the dose-response curve, HACAT control cells, AUC<450 = reduced viability.
Where [11] appears, read: area under the dose-response curve, HEK293T control cells, AUC<450 = reduced viability.
The mark [12] stands for this setting: area under the dose-response curve, NIH3T3 control cells, AUC<450 = reduced viability.
Setting [13] is: area under the dose-response curve, CRL7250 control cells, AUC<450 = reduced viability.

Structures can show the parent of a compound that is named as a salt. Where two headings read alike, the source gives them in different places.

Molecule `Cc1ncc(CNC(=O)N(CCCl)N=O)c(N)n1` [Nimustine] displayed an MCC13_AUC in the experiment with MCC13 cells (VN-MCC) of 434.577. For the same molecule, the MCC26_AUC in the experiment with MCC26 cells (VN-MCC) amounted to 438.698. Moreover, the UISO_AUC in the experiment with UISO cells (VN-MCC) stood at 443.983. Also, the WAGA_AUC with WAGA cells (VP-MCC) is given as 465.895. Further, the MKL1_AUC with MKL-1 cells (VP-MCC) worked out at 478.611. Besides, the MKL2_AUC in the experiment on MKL-2 cells (VP-MCC) amounted to 504.085. In the experiment on HACAT cells, this molecule yielded an HACAT_AUC of 461.645. Also, the HEK293T_AUC with HEK293T cells came out at 481.182. In the experiment on NIH-3T3 cells, the NIH3T3_AUC came to 486.849. This molecule returned a CRL7250_AUC with CRL-7250 cells of 491.102.

On to `C[N+]1(CC2COC(c3ccccc3)(C3CCCCC3)O2)CCCCC1` (stereo not shown) [Oxapium iodide], for which the MCC13_AUC with MCC13 cells (VN-MCC) (setting [4]) is recorded as 501.634. Moreover, the MCC26_AUC in the experiment with MCC26 cells (VN-MCC) (setting [5]) was determined as 482.458. In addition, the UISO_AUC with UISO cells (VN-MCC) (setting [6]) turned out to be 505.529. Further, the WAGA_AUC in the experiment on WAGA cells (VP-MCC) (setting [7]) was 422.785. The MKL1_AUC in the experiment with MKL-1 cells (VP-MCC) (setting [8]) is 436.858. In the experiment with MKL-2 cells (VP-MCC) (setting [9]), the MKL2_AUC amounted to 426.411. In the experiment with HACAT cells (setting [10]), this molecule returned an HACAT_AUC of 474.271. Besides, the HEK293T_AUC with HEK293T cells (setting [11]) is recorded as 460.835. The same molecule showed an NIH3T3_AUC with NIH-3T3 cells (setting [12]) of 474.75. The same molecule had a CRL7250_AUC in the experiment with CRL-7250 cells (setting [13]) of 483.841.

`C[N+]1(C)[C@@H]2C[C@@H](OC(=O)[C@H](CO)c3ccccc3)C[C@H]1[C@@H]1O[C@@H]12` [Scopolamine methylbromide, reference compound]: the “Area under the dose-response curve (AUC) MCC13” value in the experiment with MCC13 cells (VN-MCC) worked out at 481.8. For the same molecule, the “Area under the dose-response curve (AUC) MCC26” value with MCC26 cells (VN-MCC) was 475.2. In addition, the “Area under the dose-response curve (AUC) UISO” value in the experiment on UISO cells (VN-MCC) is reported as 492.6. For the same molecule, the “Area under the dose-response curve (AUC) WAGA” value in the experiment on WAGA cells (VP-MCC) is 491.2. Also, in the experiment with MKL-1 cells (VP-MCC), the “Area under the dose-response curve (AUC) MKL-1” value is recorded as 484.0. Further, the “Area under the dose-response curve (AUC) MKL-2” value in the experiment on MKL-2 cells (VP-MCC) came out at 496.7. Also, the “Area under the dose-response curve (AUC) HACAT” value with HACAT cells stood at 476.9. In the experiment on HEK293T cells, the “Area under the dose-response curve (AUC) HEK293T” value came to 479.5. The “Area under the dose-response curve (AUC) NIH3T3” value with NIH-3T3 cells came out at 468.1. Further, the “Area under the dose-response curve (AUC) CRL7250” value in the experiment with CRL-7250 cells is 474.6.

Consider `COc1cc2nc(N3CCN(C(=O)C4CCCO4)CC3)nc(N)c2cc1OC` (stereo not shown) [Terazosin hydrochloride], for which the Control-VP-MCC in experiment [1] is recorded as 51.2361. In experiment [2], this molecule yielded a Control-VN-MCC of 50.4982. The molecule also registered a Control-MCC in [3] of 50.8672.

For `CC(C)(C)NCC(O)c1cc(O)cc(O)c1.CC(C)(C)NCC(O)c1cc(O)cc(O)c1.O=S(=O)(O)O` (stereo not shown) [Terbutaline hemisulfate], in the experiment with MCC13 cells (VN-MCC) (setting [4]), the MCC13_AUC is given as 446.456. Besides, the MCC26_AUC in the experiment with MCC26 cells (VN-MCC) (setting [5]) is 430.481. In the experiment on UISO cells (VN-MCC) (setting [6]), this molecule gave a UISO_AUC of 427.113. The WAGA_AUC in the experiment with WAGA cells (VP-MCC) (setting [7]) amounted to 449.356. For the same molecule, the MKL1_AUC with MKL-1 cells (VP-MCC) (setting [8]) is 438.666. In the experiment on MKL-2 cells (VP-MCC) (setting [9]), this molecule showed an MKL2_AUC of 440.746. In the experiment with HACAT cells (setting [10]), this molecule gave an HACAT_AUC of 496.73. In addition, the HEK293T_AUC with HEK293T cells (setting [11]) is 465.552. The molecule also had an NIH3T3_AUC with NIH-3T3 cells (setting [12]) of 463.76. The CRL7250_AUC in the experiment on CRL-7250 cells (setting [13]) turned out to be 479.05.

Turning to `CN1CCN(CCCN2c3ccccc3Sc3ccc(C(F)(F)F)cc32)CC1` [Trifluoperazine hydrochloride, reference compound], in the experiment on MCC13 cells (VN-MCC), the “Area under the dose-response curve (AUC) MCC13” value is 486.4. The “Area under the dose-response curve (AUC) MCC26” value with MCC26 cells (VN-MCC) stood at 481.8. Moreover, the “Area under the dose-response curve (AUC) UISO” value in the experiment on UISO cells (VN-MCC) was found to be 500.3. Also, the “Area under the dose-response curve (AUC) WAGA” value in the experiment with WAGA cells (VP-MCC) is on record as 495.2. Also, the “Area under the dose-response curve (AUC) MKL-1” value in the experiment on MKL-1 cells (VP-MCC) worked out at 497.8. Also, the “Area under the dose-response curve (AUC) MKL-2” value in the experiment on MKL-2 cells (VP-MCC) worked out at 488.7. Further, the “Area under the dose-response curve (AUC) HACAT” value with HACAT cells was determined as 455.5. Also, in the experiment with HEK293T cells, the “Area under the dose-response curve (AUC) HEK293T” value was 471.8. Besides, the “Area under the dose-response curve (AUC) NIH3T3” value in the experiment with NIH-3T3 cells is recorded as 467.6. For the same molecule, the “Area under the dose-response curve (AUC) CRL7250” value in the experiment on CRL-7250 cells is recorded as 412.6.

In turn, `COc1cc(C(=O)NCc2ccc(OCCN(C)C)cc2)cc(OC)c1OC` [Trimethobenzamide hydrochloride] yielded an MCC13_AUC in the experiment with MCC13 cells (VN-MCC) (setting [4]) of 447.793. For the same molecule, the MCC26_AUC in the experiment with MCC26 cells (VN-MCC) (setting [5]) worked out at 425.084. The UISO_AUC with UISO cells (VN-MCC) (setting [6]) is on record as 426.826. The WAGA_AUC in the experiment with WAGA cells (VP-MCC) (setting [7]) was found to be 468.296. Also, the MKL1_AUC with MKL-1 cells (VP-MCC) (setting [8]) was found to be 452.093. This molecule returned an MKL2_AUC with MKL-2 cells (VP-MCC) (setting [9]) of 453.926. Also, the HACAT_AUC with HACAT cells (setting [10]) stood at 491.547. In the experiment with HEK293T cells (setting [11]), this molecule had an HEK293T_AUC of 452.936. Moreover, the NIH3T3_AUC in the experiment with NIH-3T3 cells (setting [12]) was 459.509. The same molecule yielded a CRL7250_AUC in the experiment with CRL-7250 cells (setting [13]) of 477.417.

In turn, `O=C(O)/C=C(\CC(=O)O)C(=O)O` [trans-Aconitic acid] yielded an MCC13_AUC in the experiment on MCC13 cells (VN-MCC) (setting [4]) of 525.202. The molecule also had an MCC26_AUC in the experiment with MCC26 cells (VN-MCC) (setting [5]) of 496.696. The molecule further yielded a UISO_AUC with UISO cells (VN-MCC) (setting [6]) of 494.852. The molecule further showed a WAGA_AUC with WAGA cells (VP-MCC) (setting [7]) of 441.902. In the experiment on MKL-1 cells (VP-MCC) (setting [8]), the MKL1_AUC is on record as 435.147. In the experiment on MKL-2 cells (VP-MCC) (setting [9]), this molecule displayed an MKL2_AUC of 378.194. In the experiment with HACAT cells (setting [10]), this molecule returned an HACAT_AUC of 490.879. Moreover, the HEK293T_AUC with HEK293T cells (setting [11]) came to 467.145. Also, the NIH3T3_AUC in the experiment on NIH-3T3 cells (setting [12]) came out at 503.673. Further, the CRL7250_AUC in the experiment with CRL-7250 cells (setting [13]) amounted to 486.622.
